From publication PMC12030497, “Plasma Protein Binding, Biostability, Metabolite Profiling, and CYP450 Phenotype of TPB15 Across Different Species: A Novel Smoothened Inhibitor for TNBC Therapy” (Pharmaceutics, 2025)

Assays:
[1] = Plasma protein binding by ultrafiltration, monkey plasma; assay type: in vitro ADME, cynomolgus monkey
Method: (§1) To prepare plasma samples of TPB15 at final concentrations of 4, 8, and 16 μg/mL, 1 μL of TPB15 dissolved in dimethyl sulfoxide (DMSO) at low (400 μg/mL), medium (800 μg/mL), and high (1600 μg/mL) concentrations was added to 99 μL of blank plasma obtained from humans, rats, mice, monkeys, and dogs. Each concentration was prepared in six replicates. The samples were then divided into two groups: one for determining the pre-ultrafiltration concentration (Cpre) and the other for measuring the post-ultrafiltration concentration (Ct), following the evaluation of the non-specific binding coefficient (NSB) of TPB15 to the ultrafiltration tubes. For Cpre determination, 10 μL of the sample was mixed with 990 μL of plasma, vortexed thoroughly, and analyzed for drug concentration using the previously reported liquid chromatography–tandem mass spectrometry (LC-MS/MS) method. For Ct determination, the samples were first incubated in a water bath at 37 °C for 3 h. After incubation, they were transferred to ultrafiltration tubes and centrifuged at 14,000 rpm for 20 min at 4 °C using a centrifuge (Sigma 3K-15) from Sigma Laborzentrifugen GmbH (Osterode am Harz, Germany). After centrifugation, 10 μL of the ultrafiltrate was mixed with 990 μL of plasma, vortexed, and analyzed for concentration using the same LC-MS/MS method. The formula for calculating the plasma protein binding rate (PPB) is as follows: PPB (%) = [1 − Ct/(1 − NSB)/Cpre] × 100%. (NSB: non-specific binding coefficient. […]).

[2] = Plasma protein binding by ultrafiltration, dog plasma; assay type: in vitro ADME; settings: beagle
Method: as §1

[3] = Stability in rat plasma; assay type: in vitro ADME, SD rat; settings: 37 °C, 453 μg/L
Method: A total of 696.5 μL of plasma from each species (healthy mice, rat, dog, monkey, and human) were spiked with 3.5 μL of TPB15 stock solution ([…] in DMSO), resulting in a final TPB15 concentration of 453 μg/L in plasma. The mixture was then aliquoted into three tubes, each with a volume of 200 μL, maintaining a final DMSO concentration of 0.5%. After incubation in a water bath at 37 °C for 0, 30, 60, 90, and 120 min, 100 µL samples were transferred into EP tubes. Subsequently, 10 µL of internal standard working solution were added, followed by vortex mixing. Then, 500 µL of ethyl acetate were added, and the mixture was vortexed again before being centrifuged at 14,800 rpm at 4 °C for 10 min. A total of 400 µL of the supernatant were transferred into a new EP tube and placed in a vacuum concentrator (Bionoon-VAC2) (Bionoon Biotech, Shanghai, China) to dry for 1 h. The dried residue was reconstituted with 100 µL of mobile phase, vortex mixed thoroughly, and centrifuged again at 14,800 rpm at 4 °C for 10 min. A volume of 5 µL of the supernatant was then taken for LC-MS/MS analysis to determine the drug concentration. Additionally, a blank control group was established, in which PBS buffer was used in place of blank plasma in the incubation system.

[4] = Metabolic stability in mouse liver microsomes (MouLM); assay type: in vitro ADME, KM mice
Method: (§2) A total of 450 μL liver microsomes from mice, rat, dog, monkey, and human were spiked with 0.5 μL of TPB15 solution and pre-incubated in a water bath at 37 °C for 10 min. Following this, 50 μL of NADPH were added to initiate the reaction. The concentrations of each substance in the incubation system are detailed in Table 1. After initiating the metabolic reaction, 50 μL aliquots were removed at incubation times of 0, 5, 15, 30, 45, 60, and 90 min and transferred to 150 μL of icy methanol solution containing the internal standard to terminate the reaction. The mixtures were swirled for 2 min and then centrifuged at 14,800 rpm at 4 °C for 10 min. […] Three samples were prepared in parallel at each time point. Additionally, both a positive control group and a blank control group were established. In the positive control group, substrate testosterone was incubated with liver microsomes from mice, rat, dog, monkey, and human. The concentrations of substrate testosterone were measured at 0 and 90 min, and the changes in concentration before and after incubation were compared to confirm the activity of the liver microsomes. The blank control group included one drug-containing inactivated liver microsome sample for each species. The metabolic stability parameters, including in vitro elimination half-life (T1/2) and in vitro intrinsic clearance rate (CLint), were calculated based on this graph using the following formulas: in vitro elimination half-life (T1/2) = −0.693/k and in vitro intrinsic clearance rate (CLint) = (0.693 × incubation medium (mL))/(liver microsomes (mg) × T1/2).

[5] = Metabolic stability in monkey liver microsomes (MLM); assay type: in vitro ADME, crab-eating monkey
Method: as §2

[6] = Metabolic stability in human liver microsomes (HLM); assay type: in vitro ADME
Method: as §2

[7] = tested on: normal mammary epithelial cells (MCF10A); set-up: method as in PMID 32690258; settings: read-out: half-maximal inhibitory concentration (IC50) on normal mammary epithelial cells (MCF10A); cited from earlier work
[8] = tested on: MDA-MB-468; set-up: method as in PMID 32690258; settings: MDA-MB-468, in vitro; cited from earlier work
[9] = tested on: MDA-MB-231; set-up: method as in PMID 32690258; settings: MDA-MB-231, in vitro; cited from earlier work
[10] = tested on: Smo; set-up: method as in PMID 32690258; settings: preliminary studies; cited from earlier work

Structure (SMILES): O=C(Nc1ccc(Cl)c(-c2nnc3c(Cl)cccn23)c1)c1ccc(Cl)nc1Cl [TPB15]
- fraction unbound at 3 h, 4 μg/mL ([1]; cynomolgus monkey, plasma, 4 μg/mL TPB15, ultrafiltration, 37 °C 3 h): 0.185
- fraction unbound at 3 h, 8 μg/mL ([1]; cynomolgus monkey, plasma, 8 μg/mL TPB15, ultrafiltration, 37 °C 3 h): 0.188
- fraction unbound at 3 h, 16 μg/mL ([1]; cynomolgus monkey, plasma, 16 μg/mL TPB15, ultrafiltration, 37 °C 3 h): 0.178
- fraction unbound at 3 h ([1]; monkey plasma, 4 to 16 μg/mL, read-out: average plasma protein binding rates, range over concentrations): 0.178 to 0.188
- fraction unbound at 3 h, 4 μg/mL ([2]; dog, plasma, 4 μg/mL TPB15, ultrafiltration, 37 °C 3 h): 0.185
- fraction unbound at 3 h, 8 μg/mL ([2]; dog, plasma, 8 μg/mL TPB15, ultrafiltration, 37 °C 3 h): 0.19
- fraction unbound at 3 h, 16 μg/mL ([2]; dog, plasma, 16 μg/mL TPB15, ultrafiltration, 37 °C 3 h): 0.177
- fraction unbound at 3 h ([2]; dog plasma, 4 to 16 μg/mL, read-out: average plasma protein binding rates, range over concentrations): 0.177 to 0.19
- Remaining proportion of substrate TPB15 (%) SD rat ([3]; incubation 0 min): 100.0 ± 0.6%
- Remaining proportion of substrate TPB15 (%) SD rat ([3]; incubation 30 min): 99.7 ± 1.5%
- Remaining proportion of substrate TPB15 (%) SD rat ([3]; incubation 60 min): 97.6 ± 0.6%
- Remaining proportion of substrate TPB15 (%) SD rat ([3]; incubation 90 min): 99.1 ± 0.3%
- Remaining proportion of substrate TPB15 (%) SD rat ([3]; incubation 120 min): 98.0 ± 0.6%
- remaining proportion of TPB15 in liver microsomes ([4]; KM mice microsomes, 90 min, 5 μM TPB15, 0.5 mg/mL, NADPH 1 mM): 80.0 ± 5.93%
- microsomal CLint at 5 μM ([4]; KM, mouse, liver microsomes, MouLM, 5 μM TPB15, 0.5 mg/mL microsomes, read-out: CLint (mL/min/mg), in vitro intrinsic clearance rate): 0.0273 mL/min/mg
- T1/2 (min), in vitro elimination half-life ([5]; MLM, 5 μM TPB15, 0.5 mg/mL microsomes): 88.34 min
- remaining proportion of TPB15 in liver microsomes ([5]; crab-eating monkey microsomes, 90 min, 5 μM TPB15, 0.5 mg/mL, NADPH 1 mM): 48.0 ± 2.86%
- microsomal CLint at 5 μM ([5]; monkey liver microsomes, MLM, 5 μM TPB15, 0.5 mg/mL microsomes, read-out: CLint (mL/min/mg), in vitro intrinsic clearance rate): 0.0941 mL/min/mg
- half-life at 5 μM ([5]; monkey liver microsomes, MLM, 5 μM TPB15, 0.5 mg/mL microsomes, read-out: T1/2 (min), in vitro elimination half-life): 88 min
- remaining proportion of TPB15 in liver microsomes ([6]; human microsomes, 90 min, 5 μM TPB15, 0.5 mg/mL, NADPH 1 mM): 55.0 ± 2.81%
- microsomal CLint at 5 μM ([6]; human, liver microsomes, HLM, 5 μM TPB15, 0.5 mg/mL microsomes, read-out: CLint (mL/min/mg), in vitro intrinsic clearance rate): 0.0805 mL/min/mg
- half-life at 5 μM ([6]; human, liver microsomes, HLM, 5 μM TPB15, 0.5 mg/mL microsomes, read-out: T1/2 (min), in vitro elimination half-life): 103 min
- IC50 [7]: 169 µM
- inhibition of proliferation of TNBC cell line [8]: significantly inhibits the proliferation
- inhibition of proliferation of TNBC cell line [9]: significantly inhibits the proliferation
- binding to the Smo target [10]: effectively binds to the Smo target
